From ChEMBL document CHEMBL1201862, “PubChem BioAssay data set” (2004) come the findings set out here.

Assay [1] has as its target T1, Induced myeloid leukemia cell differentiation protein Mcl-1 (Homo sapiens, UniProt Q07820). In words: MCL1-BIM BH3 interaction inhibitors, dose response, biochemical, fluorescence polarization, BIM-BH3 peptide, 1536-well (AID 2217).
In another assay the target is Bcl-2-like protein 1 (Homo sapiens, UniProt Q07817). In words: BCL-XL inhibitors, dose response, selectivity assay for MCL1 inhibitor project, biochemical, fluorescence polarization, 1536-well (AID 2218). A general note: In fluorescence polarisation assays a small probe gives low polarisation when free and higher when bound to something large.
The next assay deals with Genome polyprotein (dengue virus type 2, UniProt P29990). In words: Dengue-2 NS5 methyltransferase inhibitors, primary screen, biochemical, confirmation dose response (AID 588689). The assay is classed as functional.
Chain of Genome polyprotein (P29990 2492-3391 limits assumed): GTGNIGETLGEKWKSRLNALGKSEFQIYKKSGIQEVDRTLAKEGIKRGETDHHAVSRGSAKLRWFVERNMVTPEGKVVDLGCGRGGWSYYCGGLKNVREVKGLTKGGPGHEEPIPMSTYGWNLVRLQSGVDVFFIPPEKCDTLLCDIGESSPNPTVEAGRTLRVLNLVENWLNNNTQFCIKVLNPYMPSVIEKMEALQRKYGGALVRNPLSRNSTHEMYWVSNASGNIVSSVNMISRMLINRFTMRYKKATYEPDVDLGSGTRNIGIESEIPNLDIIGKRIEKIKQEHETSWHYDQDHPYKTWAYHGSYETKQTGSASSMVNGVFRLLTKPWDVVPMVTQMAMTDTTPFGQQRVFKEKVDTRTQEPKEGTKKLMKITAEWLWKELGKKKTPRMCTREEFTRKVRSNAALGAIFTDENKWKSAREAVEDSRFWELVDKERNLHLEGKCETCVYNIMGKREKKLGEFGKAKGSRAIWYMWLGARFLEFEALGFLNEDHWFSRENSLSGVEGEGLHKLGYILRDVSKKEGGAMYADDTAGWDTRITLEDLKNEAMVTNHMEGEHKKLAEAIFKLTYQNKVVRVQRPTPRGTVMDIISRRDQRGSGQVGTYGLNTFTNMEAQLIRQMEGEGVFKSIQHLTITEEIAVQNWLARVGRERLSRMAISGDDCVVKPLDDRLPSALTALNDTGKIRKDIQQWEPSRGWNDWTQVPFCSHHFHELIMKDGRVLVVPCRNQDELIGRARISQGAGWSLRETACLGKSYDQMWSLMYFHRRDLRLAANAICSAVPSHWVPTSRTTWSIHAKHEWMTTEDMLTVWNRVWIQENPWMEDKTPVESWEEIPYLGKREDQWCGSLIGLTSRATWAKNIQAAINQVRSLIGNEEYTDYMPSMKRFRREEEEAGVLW
For assay [2], the target named is T1, Induced myeloid leukemia cell differentiation protein Mcl-1. The format is functional.
The target of assay [3] is Protein-tyrosine kinase 2-beta (Homo sapiens, UniProt Q14289).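 Further: potency of inhibitors of PYK2 kinase phosphorylation of poly-GT substrate.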
The target of the next assay is T2, Bcl-2-like protein 10 (Homo sapiens, UniProt Q9HD36).
T2 sequence (Q9HD36 whole entry): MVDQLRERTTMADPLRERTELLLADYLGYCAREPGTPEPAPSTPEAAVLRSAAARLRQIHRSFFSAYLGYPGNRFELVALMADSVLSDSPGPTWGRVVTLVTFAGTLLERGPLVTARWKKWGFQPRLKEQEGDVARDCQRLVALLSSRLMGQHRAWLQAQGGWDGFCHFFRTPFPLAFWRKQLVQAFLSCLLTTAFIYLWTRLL
In words: displacers of TR3 peptide from Bcl-B, primary screen, selectivity assay for Bfl-1 inhibitor project, biochemical, fluorescence polarization, FITC-TR3 peptide (AID 748).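 Further: fluorescence polarization from a fluorescein-labelled TR3 peptide binding purified Bcl-B.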

The target of another assay is NADPH oxidase 1 (Homo sapiens, UniProt Q9Y5S8). The format is functional, cell-based.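 Further: Cell-based assay with luminescence read-out, IC50 derived from inhibitor dose-response curves; intracellular ROS from endogenous NOX1 in intact HT29 colon cancer cells; potency of inhibitors that lower the ROS luminescence signal.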
Chain of NADPH oxidase 1 (Q9Y5S8 whole entry): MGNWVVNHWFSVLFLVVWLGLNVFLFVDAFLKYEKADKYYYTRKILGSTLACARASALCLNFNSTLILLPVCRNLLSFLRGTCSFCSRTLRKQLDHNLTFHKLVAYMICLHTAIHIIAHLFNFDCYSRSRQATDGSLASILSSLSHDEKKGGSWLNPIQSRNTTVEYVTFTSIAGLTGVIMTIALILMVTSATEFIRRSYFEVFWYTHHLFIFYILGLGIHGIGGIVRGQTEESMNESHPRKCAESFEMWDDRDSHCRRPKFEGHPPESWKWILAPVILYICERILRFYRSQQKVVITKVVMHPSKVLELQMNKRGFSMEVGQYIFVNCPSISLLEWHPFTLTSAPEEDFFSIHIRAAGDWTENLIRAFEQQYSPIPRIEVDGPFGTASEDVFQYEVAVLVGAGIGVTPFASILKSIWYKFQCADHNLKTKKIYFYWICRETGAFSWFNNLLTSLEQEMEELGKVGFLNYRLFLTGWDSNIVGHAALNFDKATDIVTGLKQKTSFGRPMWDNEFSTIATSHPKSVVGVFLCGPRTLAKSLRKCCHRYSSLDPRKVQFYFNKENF
Assay [4] addresses Peroxisome proliferator-activated receptor gamma/Nuclear receptor coactivator 1 (Homo sapiens, UniProt P37231). The assay can be described thus: TR-FRET dose response biochemical High Throughput Screening assay for agonists of the steroid receptor coactivator 1 (SRC-1) recruitment by the peroxisome proliferator-activated receptor gamma (PPAR gamma): non-selective agonists. [Related pubchem assays (depositor defined):AID1300, AID1808, AID504735, AID631]. The assay is classed as protein assay. (TR-FRET usually uses a lanthanide donor and a delayed reading to cut background.)

Assay [5] deals with 72 kDa type IV collagenase (Homo sapiens, UniProt P08253). In words: Dose Response validation of uHTS RPN11 inhibitor hits using a MMP-2 Fluorescence assay. The assay is classed as functional.
Chain of 72 kDa type IV collagenase (P08253 whole entry): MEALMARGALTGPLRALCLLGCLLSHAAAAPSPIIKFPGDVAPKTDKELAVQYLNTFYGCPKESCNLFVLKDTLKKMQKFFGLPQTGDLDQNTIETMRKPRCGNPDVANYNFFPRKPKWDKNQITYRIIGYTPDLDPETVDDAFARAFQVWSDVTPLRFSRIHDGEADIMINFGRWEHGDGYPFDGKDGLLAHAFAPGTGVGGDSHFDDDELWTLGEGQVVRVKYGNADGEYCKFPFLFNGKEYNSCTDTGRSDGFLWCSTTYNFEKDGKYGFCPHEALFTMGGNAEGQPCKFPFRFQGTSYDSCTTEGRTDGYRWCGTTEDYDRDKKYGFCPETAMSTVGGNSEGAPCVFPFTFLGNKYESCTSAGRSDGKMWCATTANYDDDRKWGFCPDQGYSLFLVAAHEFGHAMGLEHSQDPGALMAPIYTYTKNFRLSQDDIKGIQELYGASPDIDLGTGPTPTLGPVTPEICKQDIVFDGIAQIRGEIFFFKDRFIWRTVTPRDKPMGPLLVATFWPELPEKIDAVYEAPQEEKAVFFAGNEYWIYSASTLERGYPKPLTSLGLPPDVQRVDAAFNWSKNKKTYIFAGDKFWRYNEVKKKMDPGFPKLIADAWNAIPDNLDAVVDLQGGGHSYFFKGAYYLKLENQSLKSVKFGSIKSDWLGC
In a further assay the target is Prothrombin (Bos taurus, UniProt P00735). The assay can be described thus: thrombin inhibition, dose response, biochemical, fluorescence polarization, uHTS hits (AID 602369). The format is functional.
For assay [6], the target named is Peroxisome proliferator-activated receptor gamma/Nuclear receptor coactivator 2 (Homo sapiens, UniProt P37231). The assay can be described thus: TR-FRET dose response biochemical High Throughput Screening assay for agonists of the steroid receptor coactivator 2 (SRC-2) recruitment by the peroxisome proliferator-activated receptor gamma (PPAR gamma): non-selective agonists. [Related pubchem assays: 1297, 1032 ]. The format is functional.

The target in a further assay is Nonstructural protein 1 (Influenza A virus, UniProt Q194T2). The format is functional, Influenza A virus (A/California/07/2009(H1N1)).
Chain of Nonstructural protein 1 (Q194T2 whole entry): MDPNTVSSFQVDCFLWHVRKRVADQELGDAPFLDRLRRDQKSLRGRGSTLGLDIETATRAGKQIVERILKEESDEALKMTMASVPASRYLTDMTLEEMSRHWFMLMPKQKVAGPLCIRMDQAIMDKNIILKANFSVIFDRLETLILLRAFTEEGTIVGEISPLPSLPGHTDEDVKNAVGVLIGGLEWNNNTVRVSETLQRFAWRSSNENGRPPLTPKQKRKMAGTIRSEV
Assay [7] deals with 26S proteasome non-ATPase regulatory subunit 14 (Homo sapiens, UniProt O00487). The assay can be described thus: inhibition of proteasome subunit RPN11 – biochemical, fluorescence polarization, uHTS hits, confirmation (AID 602368). The assay is classed as functional.
Chain of 26S proteasome non-ATPase regulatory subunit 14 (O00487 whole entry): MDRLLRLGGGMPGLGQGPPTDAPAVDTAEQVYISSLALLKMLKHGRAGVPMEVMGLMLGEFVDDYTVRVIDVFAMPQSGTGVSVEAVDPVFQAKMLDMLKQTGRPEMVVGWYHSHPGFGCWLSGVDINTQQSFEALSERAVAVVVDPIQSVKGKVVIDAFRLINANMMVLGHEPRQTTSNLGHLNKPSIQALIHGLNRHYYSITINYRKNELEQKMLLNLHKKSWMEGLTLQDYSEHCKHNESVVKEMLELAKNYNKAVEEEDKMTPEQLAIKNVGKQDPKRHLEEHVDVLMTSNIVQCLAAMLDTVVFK
The nature of assay [8]: yeast RAM network inhibitors, dose response, S. cerevisiae (AID 1307). The format is functional.
The target in assay [9] is Peroxisome proliferator-activated receptor gamma/Nuclear receptor coactivator 3 (Homo sapiens, UniProt P37231). In words: TR-FRET dose response biochemical High Throughput Screening assay for agonists of the steroid receptor coactivator 3 (SRC-3) recruitment by the peroxisome proliferator-activated receptor gamma (PPAR gamma): non-selective agonists. [Related pubchem assays: 1301 (Confirmation screen.), 1048 (Primary screen.)]. The format is functional.
Chain of Peroxisome proliferator-activated receptor gamma/Nuclear receptor coactivator 3 (P37231 whole entry): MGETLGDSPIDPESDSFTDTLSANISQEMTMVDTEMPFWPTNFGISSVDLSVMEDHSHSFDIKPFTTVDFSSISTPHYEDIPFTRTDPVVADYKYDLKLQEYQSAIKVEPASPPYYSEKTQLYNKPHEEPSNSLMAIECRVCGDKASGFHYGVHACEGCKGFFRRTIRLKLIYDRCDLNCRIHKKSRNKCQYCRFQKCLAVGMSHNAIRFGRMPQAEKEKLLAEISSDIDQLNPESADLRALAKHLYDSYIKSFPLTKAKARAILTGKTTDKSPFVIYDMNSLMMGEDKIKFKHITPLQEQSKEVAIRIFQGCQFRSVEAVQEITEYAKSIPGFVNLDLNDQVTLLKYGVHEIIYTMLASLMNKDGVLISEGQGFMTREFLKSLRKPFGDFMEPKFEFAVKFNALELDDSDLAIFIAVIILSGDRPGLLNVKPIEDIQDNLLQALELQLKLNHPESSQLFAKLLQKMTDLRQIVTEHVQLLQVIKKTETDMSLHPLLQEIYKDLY
Chain of Peroxisome proliferator-activated receptor gamma/Nuclear receptor coactivator 3 (Q9Y6Q9 whole entry, further chain): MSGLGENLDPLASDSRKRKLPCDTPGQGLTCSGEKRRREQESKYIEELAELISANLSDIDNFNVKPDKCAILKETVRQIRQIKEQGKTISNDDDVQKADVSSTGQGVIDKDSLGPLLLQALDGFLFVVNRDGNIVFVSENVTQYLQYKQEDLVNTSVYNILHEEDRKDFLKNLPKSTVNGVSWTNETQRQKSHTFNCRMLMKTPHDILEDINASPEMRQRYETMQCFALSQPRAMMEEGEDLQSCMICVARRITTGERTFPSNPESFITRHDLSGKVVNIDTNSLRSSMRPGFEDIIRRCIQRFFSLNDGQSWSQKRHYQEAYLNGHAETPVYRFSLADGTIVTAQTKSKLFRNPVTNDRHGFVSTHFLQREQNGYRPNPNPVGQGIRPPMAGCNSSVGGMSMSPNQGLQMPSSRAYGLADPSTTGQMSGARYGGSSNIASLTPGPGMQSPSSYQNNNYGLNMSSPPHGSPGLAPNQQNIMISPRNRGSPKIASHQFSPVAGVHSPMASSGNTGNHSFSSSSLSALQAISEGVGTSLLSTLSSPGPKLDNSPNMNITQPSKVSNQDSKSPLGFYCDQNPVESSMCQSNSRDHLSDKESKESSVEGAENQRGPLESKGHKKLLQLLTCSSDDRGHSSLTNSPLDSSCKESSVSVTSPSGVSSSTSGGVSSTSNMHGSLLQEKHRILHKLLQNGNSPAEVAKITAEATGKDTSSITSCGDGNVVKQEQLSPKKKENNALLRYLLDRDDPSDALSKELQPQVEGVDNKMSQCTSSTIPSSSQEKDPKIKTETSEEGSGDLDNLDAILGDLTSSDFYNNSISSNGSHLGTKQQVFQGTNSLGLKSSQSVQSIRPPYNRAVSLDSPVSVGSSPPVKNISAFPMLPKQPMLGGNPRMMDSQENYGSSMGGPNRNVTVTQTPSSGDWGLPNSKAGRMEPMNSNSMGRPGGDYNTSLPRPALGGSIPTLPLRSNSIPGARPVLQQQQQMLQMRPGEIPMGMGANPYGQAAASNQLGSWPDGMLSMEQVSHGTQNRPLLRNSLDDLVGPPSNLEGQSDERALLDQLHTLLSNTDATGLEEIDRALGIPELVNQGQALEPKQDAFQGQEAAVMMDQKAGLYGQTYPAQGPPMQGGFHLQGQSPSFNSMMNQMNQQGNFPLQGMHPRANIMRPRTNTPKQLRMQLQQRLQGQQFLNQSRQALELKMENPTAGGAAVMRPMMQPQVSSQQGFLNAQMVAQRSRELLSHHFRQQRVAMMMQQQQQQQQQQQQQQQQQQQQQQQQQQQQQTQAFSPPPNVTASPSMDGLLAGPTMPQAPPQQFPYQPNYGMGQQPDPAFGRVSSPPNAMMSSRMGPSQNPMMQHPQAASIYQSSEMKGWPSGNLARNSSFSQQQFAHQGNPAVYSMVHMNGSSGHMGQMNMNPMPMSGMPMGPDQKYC

As usually defined, the IC50 is the concentration needed to halve the response being measured. Usually EC50 stands for the midpoint of the concentration-response curve.

Calls of active or inactive are those of the source.

T1 sequence (Q07820 whole entry): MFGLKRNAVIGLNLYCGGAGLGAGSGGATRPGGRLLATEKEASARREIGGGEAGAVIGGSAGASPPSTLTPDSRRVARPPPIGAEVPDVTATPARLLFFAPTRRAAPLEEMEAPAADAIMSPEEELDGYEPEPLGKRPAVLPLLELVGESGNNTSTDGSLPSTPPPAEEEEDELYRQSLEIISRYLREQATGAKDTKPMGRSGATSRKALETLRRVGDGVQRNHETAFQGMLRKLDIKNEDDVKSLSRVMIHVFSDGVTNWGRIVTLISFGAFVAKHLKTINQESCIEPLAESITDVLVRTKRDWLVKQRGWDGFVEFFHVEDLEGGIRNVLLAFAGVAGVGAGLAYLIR

Consider `CCc1sc(C(C2C(=O)CC(C)(C)CC2=O)C2C(=O)CC(C)(C)CC2=O)cc1[N+](=O)[O-]`, for which the IC50 in [1] was 6.08 µM (active); at Bcl-2-like protein 1, > 109 µM (not active); on Genome polyprotein, 16.4 µM (active).

Consider `Cn1c(SCC(=O)Nc2ccc3nc(SCC(=O)N4CCCC4)sc3c2)nnc1-c1ccc(N)cc1`, for which the IC50 in assay [2] was 1.82 µM (active); in assay [3], 2.5 µM (active); on Bcl-2-like protein 10, 58.3 µM (inactive).

Consider `O=C(CCC(=O)Nc1ccccc1)Nc1ccccc1`, for which the IC50 at NADPH oxidase 1 is > 17 µM (not active).

`CN(C)c1ccc(/C=C/C=C2/C(=O)NC(=O)N(c3ccccc3)C2=O)cc1`: the results for the EC50 in assay [4], in assay [6] and in assay [9] were > 2.94 µM (inactive), 4.13 µM (active) and > 79.4 µM (not active), respectively. Further, the IC50 in assay [5] is 71.2 µM (active); on Prothrombin it was 19.6 µM (active); at Nonstructural protein 1, 12.1 µM (active); in assay [7], 28.2 µM (active); in assay [8], 317 µM (active).
